Assay results: BindingDB's records for doi:10.1039/d3md00655g (Henan University, 2024)

Columns and labels:
[1] = biological target: Programmed cell death 1 ligand 1 (Homo sapiens) (UniProt Q9NZQ7); assay: Inhibition of PD-1/PD-L1 (unknown origin) protein-protein interaction
[2] = biological target: Programmed cell death 1 ligand 1 (Homo sapiens) (UniProt Q9NZQ7); assay: Inhibition of PD-1/PD-L1 (unknown origin) interaction incubated for 15 mins by HTRF assay

Programmed cell death 1 ligand 1 (Homo sapiens), sequence (Q9NZQ7 whole entry, looked up): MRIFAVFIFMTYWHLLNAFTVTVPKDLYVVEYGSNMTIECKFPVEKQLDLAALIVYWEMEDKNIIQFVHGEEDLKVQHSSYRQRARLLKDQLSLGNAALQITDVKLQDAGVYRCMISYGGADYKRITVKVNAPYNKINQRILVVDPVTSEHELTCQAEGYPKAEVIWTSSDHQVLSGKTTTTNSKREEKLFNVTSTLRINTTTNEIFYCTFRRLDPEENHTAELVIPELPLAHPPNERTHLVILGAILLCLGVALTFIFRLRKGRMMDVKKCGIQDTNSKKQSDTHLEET

Row | Structure (SMILES) | IC50 [1] [µM] | IC50 [2] [µM]
1 | COc1nc(-c2cccc(-c3ccccc3F)c2C)ccc1CNCCC(N)=O | 0.00093 | –
2 | Cc1c(COc2ccc(CN3CCNCC3)c(OCc3cn(-c4cccc(C#N)c4)nn3)c2)cccc1-c1ccccc1 | – | 8.52
